Assay [1] relates to acyl-CoA dehydrogenases. The assay can be described thus: In vitro acyl-CoA dehydrogenase ferrocenium assay with C. tyrobutyricum cell-free extract. It counts as biochemical. As to conditions: 0.5 to 10 mM compound; rate of ferrocenium reduction at 300 nm. Here is the method: Lehman, et al., in An Acyl-Coenzyme A Dehydrogenase Assay Utilizing the Ferricenium Ion, Analytical Biochemistry 186, pages 280-284 (1990), disclose an in vitro assay screening technique for acyl-CoA dehydrogenases for determining enzyme deficiencies in children. An adaptation of this technique was explored as a potential screening method for ascertaining potential butyrogen inhibitors. An aqueous assay liquor is prepared such that each 1 milliliter sample contains 50 mM of TrisHCl buffer (pH 7.6); 0.05 mM of butyryl-CoA; 5 micromoles of FAD (flavin adenine dinucleotide) and 0.4 mM of ferrocenium. Whole cells of C. tyrobutyricum are lysed and are added to the assay liquor. […] The abbreviation mM stands for millimolar. To assure metabolic consistency among the samples a master batch of C. tyrobutyricum is prepared and harvested at the early log growth stage (approximate O.D. of between about 0.5 and 0.7). The master batch fermentation broth is centrifuged and rinsed with 50 mM TrisHCl buffer (pH 7.6), centrifuged and reconstituted with 50 mM TrisHCl buffer (pH 7.6) to be 10 times more concentrated than the original master batch. Aliquots of about 0.5 milliliter are placed into cryogenic vials (about 1.8 milliliter capacity) and frozen at −80° C. until needed. When needed, a vial is placed in an anoxic Coy chamber and allowed to thaw to room temperature. Once thawed, the cells are added to a 15 mL centrifuge tube and diluted with 0.5 mL of a 2 mg/mL solution of lysozyme (purchased from Aldrich) in 50 mM Tris-HCl (final concentration of lysozyme is about 1 mg/mL). The centrifuge tube is inverted 5 times, removed from the Coy chamber and allowed to incubate at 37° C. for 30 minutes. […] The centrifuge tube is vortexed in the Coy chamber for about 30 seconds, removed from the chamber and centrifuged for 15 minutes at 4000 rpm and 4° C. The tube is returned to the chamber and the cell-free extract (supernatant) is used to prepare the above described samples. The samples are analyzed at various times by absorbance spectroscopy at 300 nm using a Thermo Scientific Evolution 300 UV/Vis spectrophotometer with a 7-cuvette carousel and Starna quartz cuvettes with a septum cap to determine the amount of reduction of ferrocenium. The sample is at laboratory temperature and is maintained under anaerobic conditions. Typically, the absorbance is measured over a period of about 10 to 20 minutes which is sufficient time for the absorbance to stop changing. A linear slope of the rate of change in absorbance during the period that the absorbance is changing is determined using Microsoft Excel® 2010 linear regression to generate a straight line from the data points. The more gradual the slope, the better inhibition because the enzyme is slower at reducing the ferrocenium in the assay sample. A dose-response curve is then determined for each compound by plotting the linear slope against the respective compound concentration. A linear slope is then determined for each compound using Microsoft Excel® 2010 linear regression to generate a straight line from the data points. The steeper the dose-response slope, the better the inhibition because the increased concentration of the compound causes more of a difference in enzyme activity. The dose-response slope generally has a broad standard of deviation due to experimental imprecision and slope determinations.

Assay [2] concerns Clostridium tyrobutyricum. Nature of the assay: Serum bottle batch fermentation of Clostridium tyrobutyricum on fructose, optical density. Format: cell-based. As to conditions: duplicates A and B. Here is the method: Ethyl 3-(trifluoromethyl)benzoate is evaluated in a series of batch fermentations to determine the growth response of butyrogens to the presence of this compound at varying concentrations. The batch fermentations are conducted by anoxically filling 100 mL serum bottles with 15 mL of media having the composition given in Tables 12 and 13. About 0.15 mL of a 50% w/w solution of fructose in water (final fructose concentration about 5 g/L) is provided in the bottles. Duplicate runs are conducted for each concentration.
(§1) Each bottle is inoculated with 1.5 mL of seed culture inoculum of the strict butyrogen Clostridium tyrobutyricum, which has an OD of about 0.40 (which upon a 10 times dilution provides a starting OD for the fermentation of about 0.04). The bottles are maintained at a temperature of 37° C. Two hours after inoculation of the bottles with the bacteria, the compound is added to different bottles as a solution in 50 μL of N-methylpyrrolidone in the amounts indicated in Table 15. The fermentation process is allowed to progress at 37° C. At selected intervals of time, bacterial growth is measured by reading the optical density (OD) of the fermentation liquid. Optical density is measured by anoxically removing an aliquot of fermentation liquid and adding it to a disposable cuvette. OD's ranging between 0.01 and 0.4 are measured directly, while OD's greater than 0.4 are measure after performing a 1/10 dilution with water.
In this example ethyl 4,4,4-trifluoro-3-(trifluoromethyl)crotonate and ethyl 3-trifluoromethyl-4-methoxybenzoate are evaluated by batch fermentation. The batch fermentations are conducted by anoxically filling 100 mL serum bottles with 15 mL of media having the composition given in Tables 12 and 13. About 0.15 mL of a 50% w/w solution of fructose in water (final fructose concentration about 5 g/L) is provided in the bottles. Duplicate runs are conducted for each concentration.
as §1, with “of about 0.42 (which upon” for “of about 0.40 (which upon”, “of about 0.042). The bottles” for “of about 0.04). The bottles”, “in Table 16 and 17. The fermentation” for “in Table 15. The fermentation”, “0.4 are measured after performing” for “0.4 are measure after performing”

Assay [3] has as its system Clostridium tyrobutyricum. Nature of the assay: Butyric acid by gas chromatography in Clostridium tyrobutyricum batch fermentations. As to conditions: 500 ppm; at 11 hours. It counts as cell-based. Here is the method:
The concentration of butyric acid is determined by gas chromatography for several of the above samples at the stated points in time. The butyrate production is calculated based upon peak area calculations generated by the gas chromatograph. At 11 hours, the concentration of butyric acid for each of the controls is about 0.95 gram per liter, and the concentration of butyric acid for the samples containing 500 ppm of the inhibitor are about 0.6 gram per liter.
The concentration of butyric acid is determined by gas chromatography using the procedure set forth in Example 13. The control is reported only in Table 18.

Several values for one entry are separate records, joined by “and”; a condition that tells them apart may be missing. Equal values may be shown once.

Turning to `CCOC(=O)c1cccc(C(F)(F)F)c1` [Ethyl 3-trifluormethylbenzoate], the “Dose-Response Slope” value in assay [1] was determined as 9. In addition, the “O.D. Response to Varying Inhibitor Concentrations” value in assay [2] (500 ppm, 0 Hours, added 2 h after inoculation) was 0.04; in assay [2] (500 ppm, 2 Hours, added 2 h after inoculation), 0.09; in assay [2] (500 ppm, 3.5 Hours), 0.14; in assay [2] (500 ppm, 5.25 Hours, listed as Ethyl 3-(trifluoromethyl)benzoate), 0.21 and 0.23; in assay [2] (500 ppm, 11 Hours, listed as Ethyl 3-(trifluoromethyl)benzoate), 0.90 and 0.89; in assay [2] (500 ppm, 20.5 Hours, listed as Ethyl 3-(trifluoromethyl)benzoate), 1.53 and 1.44. The “O.D. Response to Varying Inhibitor Concentrations” value is 0.04 in assay [2] (1000 ppm, 0 Hours, added 2 h after inoculation); 0.09 in assay [2] (1000 ppm, 2 Hours, added 2 h after inoculation); 0.15 in assay [2] (1000 ppm, 3.5 Hours); 0.21 and 0.22 in assay [2] (1000 ppm, 5.25 Hours, listed as Ethyl 3-(trifluoromethyl)benzoate); 0.90 and 0.87 in assay [2] (1000 ppm, 11 Hours, listed as Ethyl 3-(trifluoromethyl)benzoate); 1.42 and 1.37 in assay [2] (1000 ppm, 20.5 Hours, listed as Ethyl 3-(trifluoromethyl)benzoate). For the same compound, the “Concentration of butyric acid” value in assay [3] is listed as “about 0.6 gram per liter”.

Source of the values: patent US20130071897A1, “METHOD FOR CONTROLLING UNDESIRABLE BYPRODUCTS FORMATION CAUSED BY CONTAMINATING ORGANISMS IN THE PRODUCTION OF ETHANOL FROM SYNGAS” (COSKATA, INC., priority 2011, published 2013).
